Measured values published in ChEMBL document CHEMBL5550190 (J Med Chem, 2024).

Key:
[1] = test system: A549; assay: Antitumor activity against human A549 cells incubated for 48 hrs; format: functional
[2] = test system: Hs-578T; assay: Antitumor activity against human Hs-578T cells incubated for 48 hrs; format: functional
[3] = test system: HCT-116; assay: Antitumor activity against human HCT-116 cells incubated for 48 hrs; format: functional
[4] = test system: MDA-MB-231; assay: Antitumor activity against human MDA-MB-231 cells incubated for 48 hrs by Celltiter Blue reagent based 2D microtiter assay; format: functional
[5] = test system: MDA-MB-231; assay: Antitumor activity against human MDA-MB-231 cells incubated for 48 hrs in presence of 1.5% BSA by Celltiter Blue reagent based 3D microtiter assay; format: functional
[6] = test system: MDA-MB-231; assay: Antitumor activity against human MDA-MB-231 cells incubated for 48 hrs in presence of 1.5% BSA by Celltiter Blue reagent based 2D microtiter assay; format: functional
[7] = test system: MDA-MB-231; assay: Antitumor activity against human MDA-MB-231 cells incubated for 48 hrs by Celltiter Blue reagent based 3D microtiter assay; format: functional
[8] = Metabolic stability in mouse liver microsomes assessed as half life at 100 uM measured upto 60 mins by LC-MS/MS analysis; format: ADME, Microsome; settings: 1 h
[9] = Drug metabolism in mouse liver microsomes assessed as M2 metabolite formation at 10 uM after 30 mins in presence of NADPH by LC-MS/MS analysis; format: ADME, Microsome; settings: 0.5 h
[10] = target: CYP3A4 (Homo sapiens, UniProt P08684); assay: Drug metabolism in human liver microsomes assessed as CYP3A4-mediated metabolism by measuring increase in half life in presence of ketoconazole (reference value: 10.8 mins); format: ADME, Microsome; settings: with ketoconazole
[11] = target: CYP2D6 (Homo sapiens, UniProt P10635); assay: Drug metabolism in human liver microsomes assessed as CYP2D6-mediated metabolism by measuring increase in half life in presence of quinidine (reference value: 10.8 mins); format: ADME, Microsome; settings: with quinidine
[12] = Metabolic stability in human liver microsomes assessed as half life at 100 uM preincubated for 5 mins followed by NADPH addition and measured upto 60 mins by LC-MS/MS analysis; format: ADME, Microsome; settings: time < 65 min
[13] = Drug metabolism in mouse liver microsomes assessed as M1 metabolite formation at 10 uM after 30 mins in presence of NADPH by LC-MS/MS analysis; format: ADME, Microsome; settings: 0.5 h
[14] = Metabolic stability in mouse liver microsomes assessed as half life at 100 uM preincubated for 5 mins followed by NADPH addition and measured upto 60 mins by LC-MS/MS analysis; format: ADME, Microsome; settings: time < 65 min
[15] = Protein binding in mouse plasma at 5 uM incubated for 5 hrs by LC-MS/MS analysis; format: ADME, cell-free; settings: read-out: PPB
[16] = target: T1, CYP1A2 (Homo sapiens, UniProt P05177); assay: Drug metabolism in human liver microsomes assessed as CYP1A2-mediated metabolism by measuring increase in half life in presence of furafylline (reference value: 10.8 mins); format: ADME, Microsome; settings: with furafylline
T1 sequence (P05177 whole entry): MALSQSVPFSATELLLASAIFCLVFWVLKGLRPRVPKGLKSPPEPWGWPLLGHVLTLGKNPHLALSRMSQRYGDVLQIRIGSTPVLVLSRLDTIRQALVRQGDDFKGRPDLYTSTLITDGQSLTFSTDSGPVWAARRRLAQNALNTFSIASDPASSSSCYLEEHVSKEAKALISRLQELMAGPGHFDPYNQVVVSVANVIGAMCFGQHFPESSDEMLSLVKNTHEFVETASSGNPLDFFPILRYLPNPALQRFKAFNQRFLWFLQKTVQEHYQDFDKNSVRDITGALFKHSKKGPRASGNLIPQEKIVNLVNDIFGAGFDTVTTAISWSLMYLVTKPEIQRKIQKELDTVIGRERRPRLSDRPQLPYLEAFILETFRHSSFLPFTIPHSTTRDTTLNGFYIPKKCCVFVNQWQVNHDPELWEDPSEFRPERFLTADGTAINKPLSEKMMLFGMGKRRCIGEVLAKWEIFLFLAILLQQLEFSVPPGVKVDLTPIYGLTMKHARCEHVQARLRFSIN

[17] = target: CYP2C19 (Homo sapiens, UniProt P33261); assay: Drug metabolism in human liver microsomes assessed as CYP2C19-mediated metabolism by measuring increase in half life in presence of (+)-N-3-benzylnirvanol (reference value: 10.8 mins); format: ADME, Microsome; settings: with (+)-N-3-benzylnirvanol
[18] = Protein binding in human plasma at 5 uM incubated for 5 hrs by LC-MS/MS analysis; format: ADME, cell-free; settings: read-out: PPB
[19] = target: CYP2C9 (Homo sapiens, UniProt P11712); assay: Drug metabolism in human liver microsomes assessed as CYP2C9-mediated metabolism by measuring increase in half life in presence of sulfaphenazole (reference value: 10.8 mins); format: ADME, Microsome; settings: with sulfaphenazole
[20] = Metabolic stability in human liver microsomes assessed as half life at 100 uM measured upto 60 mins by LC-MS/MS analysis; format: ADME, Microsome; settings: 1 h
[21] = Drug metabolism in mouse liver microsomes assessed as M3 metabolite formation at 10 uM after 30 mins in presence of NADPH by LC-MS/MS analysis; format: ADME, Microsome; settings: 0.5 h

Sequence of CYP2C9 (P11712 whole entry): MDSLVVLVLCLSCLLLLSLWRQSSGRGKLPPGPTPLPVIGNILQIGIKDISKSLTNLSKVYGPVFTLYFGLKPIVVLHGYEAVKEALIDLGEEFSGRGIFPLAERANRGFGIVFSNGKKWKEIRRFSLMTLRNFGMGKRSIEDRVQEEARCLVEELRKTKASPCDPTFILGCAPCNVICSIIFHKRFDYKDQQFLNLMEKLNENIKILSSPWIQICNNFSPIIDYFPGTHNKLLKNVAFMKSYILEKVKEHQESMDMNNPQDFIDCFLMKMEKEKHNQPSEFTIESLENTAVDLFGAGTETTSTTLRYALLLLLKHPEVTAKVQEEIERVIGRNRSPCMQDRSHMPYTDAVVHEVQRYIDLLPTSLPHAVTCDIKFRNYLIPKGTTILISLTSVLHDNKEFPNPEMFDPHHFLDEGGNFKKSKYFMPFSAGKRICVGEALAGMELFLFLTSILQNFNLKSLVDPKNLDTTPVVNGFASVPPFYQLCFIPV
Sequence of CYP2D6 (P10635 whole entry): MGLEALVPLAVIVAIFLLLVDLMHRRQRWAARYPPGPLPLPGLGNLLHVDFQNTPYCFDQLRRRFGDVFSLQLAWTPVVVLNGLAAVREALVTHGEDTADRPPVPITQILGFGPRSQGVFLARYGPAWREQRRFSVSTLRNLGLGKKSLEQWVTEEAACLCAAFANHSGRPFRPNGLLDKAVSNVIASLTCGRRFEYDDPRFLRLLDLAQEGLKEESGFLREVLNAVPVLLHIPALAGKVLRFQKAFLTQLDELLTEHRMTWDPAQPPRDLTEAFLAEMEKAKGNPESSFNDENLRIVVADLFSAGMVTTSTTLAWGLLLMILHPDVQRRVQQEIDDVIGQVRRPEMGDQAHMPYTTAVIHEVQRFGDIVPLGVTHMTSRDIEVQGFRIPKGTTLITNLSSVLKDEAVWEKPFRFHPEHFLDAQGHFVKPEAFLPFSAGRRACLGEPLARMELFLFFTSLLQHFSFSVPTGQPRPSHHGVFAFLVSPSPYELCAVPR
Sequence of CYP2C19 (P33261 whole entry): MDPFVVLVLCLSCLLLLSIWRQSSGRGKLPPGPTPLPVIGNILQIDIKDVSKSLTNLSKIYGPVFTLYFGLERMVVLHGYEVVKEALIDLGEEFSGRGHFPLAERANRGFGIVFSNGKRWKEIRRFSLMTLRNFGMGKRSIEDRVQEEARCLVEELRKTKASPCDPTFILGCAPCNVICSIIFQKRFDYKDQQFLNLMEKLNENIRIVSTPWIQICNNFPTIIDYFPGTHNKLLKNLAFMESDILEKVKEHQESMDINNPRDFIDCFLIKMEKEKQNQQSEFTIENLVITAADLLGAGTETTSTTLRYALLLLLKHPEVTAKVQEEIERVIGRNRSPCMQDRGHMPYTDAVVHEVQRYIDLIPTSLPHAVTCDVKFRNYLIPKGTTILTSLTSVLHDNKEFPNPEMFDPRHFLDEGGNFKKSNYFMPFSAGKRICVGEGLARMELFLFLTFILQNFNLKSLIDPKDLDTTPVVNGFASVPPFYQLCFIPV
Sequence of CYP3A4 (P08684 whole entry): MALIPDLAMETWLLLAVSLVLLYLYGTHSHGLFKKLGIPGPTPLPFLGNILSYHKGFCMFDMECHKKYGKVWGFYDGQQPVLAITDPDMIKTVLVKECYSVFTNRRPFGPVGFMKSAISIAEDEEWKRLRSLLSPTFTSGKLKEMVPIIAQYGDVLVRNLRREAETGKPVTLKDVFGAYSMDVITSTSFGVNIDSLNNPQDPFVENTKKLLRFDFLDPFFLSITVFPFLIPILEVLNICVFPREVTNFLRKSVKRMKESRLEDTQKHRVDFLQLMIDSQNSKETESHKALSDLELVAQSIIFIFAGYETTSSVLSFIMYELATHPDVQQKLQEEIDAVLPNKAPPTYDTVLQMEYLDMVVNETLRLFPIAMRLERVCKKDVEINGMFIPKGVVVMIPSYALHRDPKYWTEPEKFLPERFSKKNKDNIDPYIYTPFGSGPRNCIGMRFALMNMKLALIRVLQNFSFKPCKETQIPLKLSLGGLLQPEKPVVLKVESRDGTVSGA

SMILES | GI50 [1] | GI50 [2] | GI50 [3] | also measured
COc1cc(C(=O)Nc2cc3c(cc2Oc2cc(C)cc(C)c2)C(=O)N[C@@H](CC(=O)N(C)C)C(=O)N3)c(Br)c(OC)c1OC | < 5 nM | < 5 nM | < 5 nM | 
[2H]C([2H])([2H])Oc1c(OC)cc(C(=O)Nc2cc3c(cc2Oc2cc(C)cc(C)c2)C(=O)N[C@@H](CC(=O)N(CC)CC)C(=O)N3)c(Cl)c1OC | 13.1 nM | 31.9 nM | < 5 nM | 
[2H]c1c(C)c([2H])c(Oc2cc3c(cc2NC(=O)c2cc(OC)c(OC)c(OC)c2Cl)NC(=O)[C@H](CC(=O)N(CC)CC)NC3=O)c([2H])c1C | 207 nM | 292 nM | 124 nM | 
[2H]C([2H])([2H])Oc1cc(C(=O)Nc2cc3c(cc2Oc2cc(C)cc(C)c2)C(=O)N[C@@H](CC(=O)N(C)C)C(=O)N3)c(Br)c(OC([2H])([2H])[2H])c1OC([2H])([2H])[2H] | < 5 nM | < 5 nM | < 5 nM | GI50 [4]: 0.23 nM; GI50 [5]: 0.75 nM; GI50 [6]: 0.79 nM; GI50 [7]: 25.3 nM
[2H]C([2H])([2H])Oc1cc(C(=O)Nc2cc3c(cc2Oc2cc(C)cc(C)c2)C(=O)N[C@@H](CC(=O)N(C([2H])([2H])C([2H])([2H])[2H])C([2H])([2H])C([2H])([2H])[2H])C(=O)N3)c(Br)c(OC([2H])([2H])[2H])c1OC([2H])([2H])[2H] | < 5 nM | < 5 nM | < 5 nM | GI50 [4]: < 1 nM; GI50 [5]: 14 nM; GI50 [6]: < 1 nM; GI50 [7]: 64.1 nM
[2H]C([2H])([2H])Oc1cc(C(=O)Nc2cc3c(cc2Oc2cc(C)cc(C)c2)C(=O)N[C@@H](CC(=O)N(C([2H])([2H])C([2H])([2H])[2H])C([2H])([2H])C([2H])([2H])[2H])C(=O)N3)c(Cl)c(OC([2H])([2H])[2H])c1OC([2H])([2H])[2H] | 11.7 nM | 51.5 nM | < 5 nM | 
[2H]C([2H])([2H])N(C(=O)C[C@H]1C(=O)Nc2cc(NC(=O)c3cc(OC)c(OC)c(OC)c3Br)c(Oc3cc(C)cc(C)c3)cc2C(=O)N1C)C([2H])([2H])[2H] | < 5 nM | < 5 nM | < 5 nM | 
[2H]C([2H])([2H])Oc1cc(C(=O)Nc2cc3c(cc2Oc2cc(C)cc(C)c2)C(=O)N(C)[C@@H](CC(=O)N(C([2H])([2H])[2H])C([2H])([2H])[2H])C(=O)N3)c(Br)c(OC([2H])([2H])[2H])c1OC([2H])([2H])[2H] | < 5 nM | < 5 nM | < 5 nM | 
CCN(CC)C(=O)C[C@H]1C(=O)Nc2cc(NC(=O)c3cc(OC)c(OC)c(OC)c3Br)c(Oc3cc(C)cc(C)c3)cc2C(=O)N1C | < 5 nM | 5.4 nM | < 5 nM | Stability [8]: Stable; Drug metabolism [9]: Metabolite_Detected; GI50 [4]: < 1 nM; half-life [10]: 866 min; half-life [11]: 11.6 min; GI50 [5]: 53.2 nM; half-life at 100 µM [12]: 11 min; Drug metabolism [13]: Metabolite_Detected; half-life at 100 µM [14]: 13.8 min; GI50 [6]: 3.39 nM; fraction unbound at 5 h, 5 µM [15]: < 0.02; GI50 [7]: 109 nM; half-life [16]: 11.4 min; half-life [17]: 11.7 min; fraction unbound at 5 h, 5 µM [18]: < 0.02; half-life [19]: 16.6 min; Stability [20]: Stable; Drug metabolism [21]: Metabolite_Detected
[2H]C([2H])([2H])Oc1cc(C(=O)Nc2cc3c(cc2Oc2cc(C)cc(C)c2)C(=O)N[C@@H](CC(=O)N(CC)CC)C(=O)N3)c(Cl)c(OC([2H])([2H])[2H])c1OC([2H])([2H])[2H] | 14.9 nM | 39.7 nM | 5.4 nM | 
[2H]C([2H])([2H])Oc1cc(C(=O)Nc2cc3c(cc2Oc2cc(C)cc(C)c2)C(=O)N[C@@H](CC(=O)N(C([2H])([2H])[2H])C([2H])([2H])[2H])C(=O)N3)c(Br)c(OC([2H])([2H])[2H])c1OC([2H])([2H])[2H] | 6.1 nM | < 5 nM | < 5 nM | 
[2H]c1c(Oc2cc3c(cc2NC(=O)c2cc(OC)c(OC)c(OC)c2Cl)NC(=O)[C@H](CC(=O)N(CC)CC)NC3=O)c([2H])c(C([2H])([2H])[2H])c([2H])c1C([2H])([2H])[2H] | 19.1 nM | 27.7 nM | < 5 nM | 
